29 molecules from PubChem BioAssay AID179 (DTP/NCI, 2004) can be followed below.

The source made the active and inactive calls.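 The calls were made as follows: active = compounds giving half or more protection of infected cells from virus-caused growth loss, again on retest; inactive = the rest.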

One may read the EC50 as the concentration needed to bring the measured effect to its halfway point. For orientation: IC50 means the concentration that gives 50% inhibition. A higher IC50 goes with weaker potency in that assay.

The assay deals with CEM cells HIV-1 protection, formazan growth assay. In words: NCI AIDS Antiviral Assay. The following applies: for IC50: measured here: growth of uninfected CEM cells. In outline: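 CEM (human) cells, HIV-1 infected vs uninfected, 5-point dosing, formazan growth read-out. Retest threshold 50% protection.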

With `O=C1C[C@@H]2[C@@H](C=CC23CC3)N1O`, the EC50 is more than 1510 µM and the IC50 was more than 1510 µM. Take `CN(C)c1ccc(C(C2=C(O)c3ccccc3C(=O)C2=O)C2=C(O)c3ccccc3C(=O)C2=O)cc1`: the EC50 was more than 200 µM and the half-inhibitory concentration (IC50) was determined as 30.9 µM. In the same order, the values of `N#CCCC1(CCC#N)CCCCCCC(CCC#N)(CCC#N)C(=O)C1=O` are more than 200 µM and more than 200 µM.

As for `O=C(O)C(=Cc1ccc([N+](=O)[O-])cc1)C(=O)O`, the EC50 was more than 1050 µM and the IC50 stood at 550 µM. With `O=S(=O)(/C=C/C(=C/c1ccccc1)S(=O)(=O)c1ccccc1)c1ccccc1`, the outcome was inactive. Turning to `Cc1c(-c2coc(-c3ccc([N+](=O)[O-])cc3)n2)c(=O)n(-c2ccccc2)n1C`, the EC50 was more than 36.3 µM and the IC50 is more than 36.3 µM. On to `N=c1c2ccccc2nc2oc3ccccc3n12`, for which the EC50 is more than 200 µM and the IC50 was more than 200 µM. `CCN(CC)CCC(=O)NC1c2ccccc2Sc2c(C)cccc21` (stereo not given): the EC50 is more than 513 µM and the half-maximal inhibitory concentration (IC50) was 44.7 µM. As to `CCOC(=O)c1c(C(F)(F)F)oc2c1ccc1nc3nonc3nc12`, the EC50 was more than 53.7 µM and the half-maximal inhibitory concentration (IC50) amounted to 11 µM. For `Cc1cccc(Nc2c3c(nc4ccccc24)CCCCC3)c1`, the outcome was inactive. As for `CCc1c(Cc2cc(C)cc(C)c2)n(COCCCCOC(=O)c2ccccc2)c(=O)[nH]c1=O`, the EC50 was 0.00692 µM and the IC50 was 2 µM. On to `CNC(=O)N1CCN(C(=O)NC)CCN(C(=O)NC)CC1`, for which the EC50 is more than 200 µM and the IC50 is more than 200 µM. On to `NC(=S)Nc1cc(Cl)ccc1Cl`, for which the EC50 was more than 32.4 µM and the IC50 is more than 32.4 µM. For `CC(=O)OC(Cn1cncn1)(Cn1cncn1)c1ccc(Cl)cc1Cl`, the EC50 is more than 200 µM and the IC50 is more than 200 µM. Take `O=C1CSC(c2ccc([N+](=O)[O-])cc2)N1c1ccc(-n2c(-c3ccccc3)nc3ccccc3c2=O)cc1` (stereo not given): the EC50 was more than 200 µM and the IC50 came to 129 µM. Taken in the same sequence, the figures for `COc1cccc(CCn2c(N)c(C#N)c3ccc([N+](=O)[O-])cc3c2=O)c1` were more than 200 µM and 1.12 µM. In the same order, the values of `O=C(Nc1ccccc1)c1cc2c(cc1Cl)Sc1nccn1S2(=O)=O` are more than 200 µM and more than 100 µM. Turning to `N#CCC(=O)NCCc1c[nH]c2ccccc12`, the EC50 was more than 200 µM and the IC50 is more than 200 µM. Consider `COc1ccc(-c2c(C3=NCCCN3)nnn2-c2ccc(Cl)cc2)cc1`, for which the EC50 was 14.1 µM and the IC50 amounted to 85.1 µM.

Take `O=C1NC2c3ccccc3CCC12` (stereo not given): the EC50 is more than 1450 µM and the concentration for half-maximal inhibition (IC50) is more than 1450 µM. On to `CCc1oc2ccccc2c1C(=O)c1cc(Br)c(O)c(Br)c1`, for which the EC50 is more than 200 µM and the IC50 was 34.7 µM. Regarding `COc1ccc(C2S/C(=C\c3ccc(OC)cc3OC)C(=O)N2NC(=O)Cc2ccccc2)cc1` (stereo not given), the EC50 is more than 52.5 µM and the IC50 was more than 52.5 µM. On to `COc1ccc(S(=O)(=O)c2nnc(S(=O)(=O)Cc3ccccc3)s2)cc1`, for which the EC50 was more than 200 µM and the IC50 was found to be 3.63 µM. For the molecule `COc1cc2c(cc1O)C=NCC2`, the outcome was inactive.

Turning to `CC(=O)N(C(C)=O)c1cc2c3c(c1)CCCN3CCC2`, the EC50 was more than 200 µM and the IC50 turned out to be 182 µM. In the case of `CCSC(=O)n1ncc2cc(Cl)ccc21`, the EC50 was more than 200 µM and the IC50 is 30.2 µM. With `CCOC(=O)c1c(N2CCOCC2)[nH]c(=O)c(C(c2ccc(N(C)C)cc2)c2c(O)c(C(=O)OCC)c(N3CCOCC3)[nH]c2=O)c1O`, the EC50 is more than 200 µM and the half-maximal inhibitory concentration (IC50) is more than 200 µM.

`CCCCCCN(CCCCCC)C(F)(F)C(=O)Nc1ccc(S(=O)(=O)c2ccc(NC(=O)C(F)(F)N(CCCCCC)CCCCCC)cc2)cc1`: the EC50 was more than 100 µM and the IC50 is 5.13 µM.

For the molecule `CC(=O)C(C(=O)CCSCCO)C(SCCO)c1ccc(Cl)c(Cl)c1` (stereo not given), the EC50 is more than 200 µM and the IC50 turned out to be 10.5 µM.
